Results: EP0336230B1, “Cyclic peptide antagonists of Substance P and Substance K” (FUJISAWA PHARMACEUTICAL CO., LTD., priority 1988, dated 1989)
Numbered stars: 1 amine (or outer) side, 2 acyl side, 3 side chain; on linkers, the order of the positions; unused ones are H or OH. Bridge positions count the residues as written; N and C are the ends. Square brackets hold non-standard residues; d marks the D form. Peptide text beside a SMILES is read from it. * marks the point of attachment. Cinnamoyl(2-(1Z-pentenyl)) = CCC/C=C\c1ccccc1/C=C/C(=O)*; X3 = CC(=O)Oc1ccc(/C=C(\C(=O)[*:2])N(C)[*:1])cc1; X1 = CN(/C(=C/c1ccc(O)cc1)C(=O)[*:2])[*:1]; aThr = C[C@H](O)[C@H](N)C(=O)O; X2 = CCCCCc1ccccc1CCC(=O)*

Key:
[1] = Solubility in solvents (physical and chemical properties); type: physicochemical
Procedure: The obtained product was triturated from diethyl ether to give triacetyl-WS-9326A (332 mg) as a colorless powder. Physical and chemical properties of the triacetyl-WS-9326A are as follows. […] (23)/(D) [formula] : -122° (C=1.0, MeOH) (6) Ultraviolet Absorption Spectrum : λ (MeOH)/(max) [formula] = 283 nm (ε=32,000) (7) Molecular Formula : C60H74N8O16 (8) Elemental Analysis : […]

[2] = target: T1, specific [^3H] substance P binding to guinea pig lung membranes (Cavia porcellus, UniProt P30547); test: ^3H-substance P binding to preparative membranes (guinea pig lung); conditions: ^3H-Substance P 1nM, 4°C, 30 minutes, read-out: IC50 (M), displacement of specific [^3H] substance P binding
T1 construct: from tissue; host or cells: guinea pig trachea and lung, crude membrane fraction
T1 sequence (P30547 whole entry): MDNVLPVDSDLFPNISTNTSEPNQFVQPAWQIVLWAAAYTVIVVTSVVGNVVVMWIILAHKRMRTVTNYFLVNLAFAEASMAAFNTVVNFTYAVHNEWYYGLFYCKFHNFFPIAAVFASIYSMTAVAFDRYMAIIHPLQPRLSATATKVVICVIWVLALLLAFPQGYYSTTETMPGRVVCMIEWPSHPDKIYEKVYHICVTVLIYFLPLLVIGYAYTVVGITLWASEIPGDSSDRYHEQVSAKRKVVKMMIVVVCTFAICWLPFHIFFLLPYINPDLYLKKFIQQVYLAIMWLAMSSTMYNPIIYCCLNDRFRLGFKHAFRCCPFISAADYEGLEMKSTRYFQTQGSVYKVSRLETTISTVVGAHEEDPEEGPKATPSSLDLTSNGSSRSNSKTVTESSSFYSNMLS
Procedure: (a) Crude membrane preparation
Male albino Hartley strain guinea pigs (600 g) were sacrificed by decapitation. The trachea and lungs were removed, and stored at -80°C until use. These tissues (150 g) were thawed and homogenized in 500 ml buffer (0.25 M sucrose, 50 mM Tris-HCℓ pH 7.5, 0.1 mM EDTA) with a compact mixer (Matsuden MJ-761). The tissue was homogenized with a Ultra-Disperser (Yamato MODEL LK-21) at a setting of maximum range for 10-s at 10-s intervals with cooling between homogenizations (total homogenization's time : 60 seconds). The homogenate was centrifuged (900 x g for 10 min.) to remove tissue clumps and the supernatant centrifuged at 14000 x g for 20 min. to yield pellets which were referred to as crude membrane fractions. The pellets were resuspended in Medium I, homogenized with a teflon homogenizer and centrifuged at 14000 x g for 20 min. The pellets were stored at -20°C.
(b) ^3H-substance P binding to preparative membranes
^3H-Substance P (1nM, New England Nuclear) was incubated with 50 µℓ of the membrane preparation in medium I at 4°C for 30 minutes in a final volume of 250 µℓ. […] The radioactivity was counted in 3 ml of Aquazol-2 in Packard sintillation counter (Packard TRI-CARB 4530).

Solubility ([1]; chloroform)	Solubility ([1]; diethyl ether)	Solubility ([1]; dimethyl sulfoxide)	Solubility ([1]; methanol)	Solubility ([1]; n-hexane)	IC50 [2]	SMILES
Sparingly Soluble	Sparingly Soluble	Soluble	Soluble	Insoluble	–	CCC/C=C\c1ccccc1/C=C/C(=O)N[C@@H]1C(=O)N(C)/C(=C/c2ccc(OC(C)=O)cc2)C(=O)N[C@@H](CC(C)C)C(=O)N[C@H](Cc2ccccc2)C(=O)N[C@@H]([C@H](C)OC(C)=O)C(=O)N[C@@H](CC(N)=O)C(=O)N[C@@H](COC(C)=O)C(=O)O[C@@H]1C [triacetyl-WS-9326A] ({Cinnamoyl(2-(1Z-pentenyl))}-T[X3]L[dF][aThr](Ac)NS(Ac); ester 1-C)
–	–	–	–	–	4.2e-07 M	CCCCCc1ccccc1CCC(=O)N[C@@H]1C(=O)N(C)/C(=C/c2ccc(O)cc2)C(=O)N[C@@H](CC(C)C)C(=O)N[C@H](Cc2ccccc2)C(=O)N[C@@H]([C@H](C)O)C(=O)N[C@@H](CC(N)=O)C(=O)N[C@@H](CO)C(=O)O[C@@H]1C [Tetrahydro-WS-9326A] (X2-T[X1]L[dF][aThr]NS; ester 1-C)
